# From ChEMBL document CHEMBL1131976, “Syntheses of novel antitumor dihydroxanthone derivatives with inhibitory activity against DNA topoisomerase II” (Bioorg Med Chem Lett, 1999)
# How the values were obtained:
# P388 = assay: In vitro cytotoxic activity against murine cancer cell line P388 by using MTT assay; format: functional, cell-based; details: Mus musculus
# DNA topoisomerase 1 = biological target: T1, DNA topoisomerase 1 (Mus musculus, UniProt Q04750); assay: In vitro inhibitory activity against topoisomerase I (Topo I) by using relaxation assay
# T1 sequence (Q04750 whole entry): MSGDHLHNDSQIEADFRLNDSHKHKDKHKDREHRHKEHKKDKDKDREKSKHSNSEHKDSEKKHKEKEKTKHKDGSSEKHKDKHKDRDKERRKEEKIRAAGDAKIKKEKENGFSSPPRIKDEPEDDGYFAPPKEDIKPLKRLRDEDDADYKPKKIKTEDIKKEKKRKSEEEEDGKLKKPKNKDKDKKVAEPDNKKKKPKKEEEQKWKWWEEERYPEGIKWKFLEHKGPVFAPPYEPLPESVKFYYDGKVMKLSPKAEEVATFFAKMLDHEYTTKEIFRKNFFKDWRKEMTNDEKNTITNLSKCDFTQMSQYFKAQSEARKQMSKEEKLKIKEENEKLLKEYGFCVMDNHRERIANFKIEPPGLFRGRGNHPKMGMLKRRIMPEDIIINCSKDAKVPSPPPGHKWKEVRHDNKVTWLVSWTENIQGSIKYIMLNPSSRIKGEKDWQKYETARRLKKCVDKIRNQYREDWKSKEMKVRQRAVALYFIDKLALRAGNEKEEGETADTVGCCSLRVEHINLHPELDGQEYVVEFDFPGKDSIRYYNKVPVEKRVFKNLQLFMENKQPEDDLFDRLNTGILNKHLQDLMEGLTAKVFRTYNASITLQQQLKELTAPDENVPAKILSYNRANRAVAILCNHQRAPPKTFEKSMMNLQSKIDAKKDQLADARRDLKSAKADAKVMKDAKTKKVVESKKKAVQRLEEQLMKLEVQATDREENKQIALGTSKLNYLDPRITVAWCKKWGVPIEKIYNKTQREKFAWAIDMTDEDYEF
# DNA topoisomerase 2 = biological target: T2, DNA topoisomerase 2 (Drosophila melanogaster, UniProt P15348); assay: In vitro inhibitory activity against topoisomerase II (Topo II) by using decatenation assay
# T2 sequence (P15348 whole entry): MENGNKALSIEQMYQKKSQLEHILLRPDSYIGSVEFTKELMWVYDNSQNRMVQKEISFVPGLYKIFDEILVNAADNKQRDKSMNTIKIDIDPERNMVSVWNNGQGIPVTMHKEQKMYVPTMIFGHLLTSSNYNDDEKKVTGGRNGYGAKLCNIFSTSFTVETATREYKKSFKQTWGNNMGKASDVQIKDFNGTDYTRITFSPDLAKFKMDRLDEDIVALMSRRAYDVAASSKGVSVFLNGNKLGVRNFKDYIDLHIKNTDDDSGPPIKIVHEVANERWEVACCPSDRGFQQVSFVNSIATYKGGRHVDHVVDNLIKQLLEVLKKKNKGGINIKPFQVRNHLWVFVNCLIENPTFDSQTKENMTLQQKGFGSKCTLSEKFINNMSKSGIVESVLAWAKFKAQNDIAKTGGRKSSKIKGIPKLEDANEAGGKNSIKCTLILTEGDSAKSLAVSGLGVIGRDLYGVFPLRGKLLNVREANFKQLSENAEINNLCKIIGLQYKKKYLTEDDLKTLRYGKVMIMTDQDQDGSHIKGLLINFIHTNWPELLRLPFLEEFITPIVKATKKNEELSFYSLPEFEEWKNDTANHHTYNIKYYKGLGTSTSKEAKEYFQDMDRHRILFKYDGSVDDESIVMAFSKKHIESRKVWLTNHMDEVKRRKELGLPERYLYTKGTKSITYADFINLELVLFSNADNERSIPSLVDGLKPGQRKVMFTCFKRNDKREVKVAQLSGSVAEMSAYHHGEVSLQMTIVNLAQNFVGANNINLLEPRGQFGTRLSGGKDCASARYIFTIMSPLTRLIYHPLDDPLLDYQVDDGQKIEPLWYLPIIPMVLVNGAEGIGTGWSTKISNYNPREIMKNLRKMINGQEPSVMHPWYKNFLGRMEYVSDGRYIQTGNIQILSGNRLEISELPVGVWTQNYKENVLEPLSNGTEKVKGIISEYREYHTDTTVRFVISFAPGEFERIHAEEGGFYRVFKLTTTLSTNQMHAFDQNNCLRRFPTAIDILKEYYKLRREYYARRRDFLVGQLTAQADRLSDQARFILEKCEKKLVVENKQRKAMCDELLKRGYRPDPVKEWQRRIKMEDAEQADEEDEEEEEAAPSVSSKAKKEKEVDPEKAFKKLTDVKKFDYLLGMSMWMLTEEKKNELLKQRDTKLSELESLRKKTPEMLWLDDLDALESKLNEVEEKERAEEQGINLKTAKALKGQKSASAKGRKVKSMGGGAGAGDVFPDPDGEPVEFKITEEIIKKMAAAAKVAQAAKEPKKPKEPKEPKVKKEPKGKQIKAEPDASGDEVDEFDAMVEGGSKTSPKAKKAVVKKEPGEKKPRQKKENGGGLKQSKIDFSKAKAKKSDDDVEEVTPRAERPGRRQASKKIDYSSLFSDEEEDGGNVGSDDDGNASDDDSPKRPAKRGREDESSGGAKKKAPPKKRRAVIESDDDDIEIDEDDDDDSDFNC
# HCT-116 [1] = assay: In vitro cytotoxic activity against human cancer cell line HCT116 by using MTT assay; format: functional, cell-based
# K562 = assay: In vitro cytotoxic activity against human cancer cell line K562 by using MTT assay; format: functional, cell-based
# HCT-116 [2] = assay: In vitro cytotoxic activity against HCT116 human cancer cell line at 40 uM; IA means Inactive; format: functional, cell-based
# Mus musculus [3] = assay: In vivo antitumor activity against Colon 26 murine tumor model at a dose of 10 mg/kg administered intravenously; format: functional; details: route intravenous
# Mus musculus [4] = assay: In vivo antitumor activity against Colon 26 murine tumor model at a dose of 20 mg/kg administered intravenously; format: functional; details: route intravenous
SMILES,IC50 (P388),IC50 (DNA topoisomerase 1),IC50 (DNA topoisomerase 2),IC50 (HCT-116 [1]),IC50 (K562),IC50 (HCT-116 [2]),Activity (Mus musculus [3]),Activity (Mus musculus [4])
CNC(=O)[C@]12Oc3cc(C)cc(O)c3C(=O)C1=CC=C[C@H]2O,240 nM,> 300000 nM,132000 nM,1130 nM,2260 nM,,,
Cc1cc(O)c2c(=O)c3ccccc3oc2c1,,,,,,Not Active,,
Cc1cc(O)c2c(c1)O[C@@]13C(=O)N(C)[C@@H](CC=C1C2=O)[C@H]3O,,> 300000 nM,> 300000 nM,19600 nM,6310 nM,,,
Cc1cc(O)c2c(c1)O[C@@]1(C(=O)N3CCCC3)C(=CC=C[C@H]1O)C2=O,560 nM,,,1640 nM,1520 nM,,,
Cc1cc(O)c2c(c1)O[C@@]1(C(=O)N(C)C)C(=CC=C[C@H]1O)C2=O,150 nM,,,790 nM,980 nM,,,
Cc1cc(O)c2c(c1)O[C@@]1(C(N)=O)C(=CC=C[C@H]1O)C2=O,52 nM,63000 nM,29000 nM,330 nM,590 nM,,42%,
COC(=O)[C@]12Oc3cc(C)cc(O)c3C(=O)C1=CC=C[C@H]2O,24 nM,172000 nM,2200 nM,140 nM,320 nM,,,24%
Cc1cc(O)c2c(c1)O[C@@]1(C(=O)NCCO)C(=CC=C[C@H]1O)C2=O,2670 nM,102000 nM,23000 nM,7880 nM,10600 nM,,,
